This is an account of results in publication PMC12037037 (Proceedings of the National Academy of Sciences of the …, 2025).

Test [1] deals with 5-HT2A receptor membrane preparations obtained from PSYLI2 cells (Homo sapiens, UniProt P28223). Nature of the test: Ligand binding kinetics with [3H]-LSD on PSYLI2 membrane preparations. The note with it: kinetics of competition binding vs [3H]-LSD.
Experimental: Ligand binding kinetics at the 5-HT2AR.
Data represent the mean ± SEM of 2–3 biological replicates.
Data represent the mean ± SEM of 2–4 biological replicates.
Binding buffer consisted of 50 mM Tris HCl, 10 mM MgCl2, 0.1 mM EDTA disodium dihydrate in autoclaved
deionized water. The solution was adjusted to pH 7.4 with 10 M NaOH(aq) and stored at 4 °C. This solution was used in
membrane preparation generation as well as competition and kinetics assays.
free, see 15) were grown in 15-cm plates with Dulbecco’s Modified Eagle Media (DMEM) containing 10% fetal bovine serum and 1% penicillin/streptomycin. When the cells were >90% confluent, the media was removed, and the cells were washed
with Dulbecco’s Phosphate Buffered Saline (DPBS) (15 mL). Next, DMEM (15 mL) lacking fetal bovine serum and
penicillin/streptomycin was added, and the cells were serum-starved for 4–12 hours. Roughly 10 mL of the DMEM was
removed, leaving ~5 mL of media in the plates before placing them on ice. Once on ice, the plates were scraped and the
contents were transferred to a pre-chilled 50 mL Falcon tube and then centrifuged (2,000 g, 10 min, 4 °C). The supernatant […]
of 0.25 mL to use for quantification of protein concentration via a Bradford assay with a Coomassie protein assay reagent. […]
For association binding experiments, total and nonspecific binding was determined by adding binding buffer (2.5X solution, […]
Test [2] concerns Thy1-EGFP mice, layer 2/3 of the mPFC. Put plainly: In vivo spinogenesis after chronic corticosterone administration. The note with it: chronic CORT (20 mg/kg IP daily, 20 d) + VEH; GH VEH 12.17 ± 0.5278; mean ± SEM.
Experimental: In Vivo Spinogenesis after chronic corticosterone administration. Male and female Thy1-EGFP mice were given 1 week to acclimate to the new vivarium, then transferred to new cages (individually housed). Once individually housed, the mice were administered corticosterone (20 mg/kg; IP) in DMSO (2 mL/kg) or gently handled daily for 20 days. On day 21, mice were treated with VEH (saline) or (+)-JRT (1 mg/kg; IP). After 24 h, mice were anesthetized with isoflurane and transcardially perfused with paraformaldehyde (PFA, 4% in PBS, 7.4 pH). After extraction of the brains, samples were fixed in 4% PFA at 4° C overnight. The brains were cryo-protected by immersion in a 15% sucrose solution (15% sucrose in PBS w/v) overnight. Next, samples were placed in 30% sucrose solution (30% sucrose in PBS w/v) for at least 1 day. Samples were then embedded in optimal cutting temperature compound (OCT), sliced into 100 µm coronal sections using a cryostat, and mounted on slides which were left in the dark overnight to dry. Coverslips were mounted onto microscope slides using ProLong Gold. Slides were imaged on a Nikon HCA Spinning Disc confocal microscope equipped with a 100x/NA 1.45 oil objective. Images of dendrites and dendritic spines within layer 2/3 of the mPFC were captured and manually counted by a trained experimenter blinded to treatment conditions.
The next test has as its system C57BL/6J mice. Put plainly: Sucrose preference test (SPT) after chronic CORT. It is filed as in vivo. The note with it: after 20 d CORT 20 mg/kg IP; baseline 0.7980 ± 0.03533. As to the method: remained housed in groups of three for the remainder of the study. All rats were acclimated to the colony room for up to one week prior to dosing. During the period of acclimation, rats were examined and handled daily, and weighed to assure adequate health and suitability. The room temperature was maintained between 20 °C and 23 °C with a relative humidity of 30%–70%. Lab Rodent Diet 5001 (W.F. Fisher, Cat # 11015) and water were provided ad libitum. Animals were randomly assigned across treatment groups. All testing was performed during the light phase of the light/dark cycle. Behavioral testing was conducted according to established protocols approved by the IACUC committee and PGI Standard Operation Procedures (SOP). […] All animals were carefully monitored to ensure their safety in the swim test and any animal unable to maintain a posture with its nose above water was immediately removed from the water and not used further in the study. […] This test lasted for 5 min and was video recorded. A blinded experimenter manually scored the videos for swimming, climbing, and immobility behavior. Scoring of the forced swim test was performed by trained technicians using a time sampling technique in which the animal in the video recorded test was viewed every 5 seconds and the behavior observed was noted (e.g., immobile, swimming, or climbing). […]

In test [3] the test system is E18 rat embryonic cortical neurons (DIV18-19). Nature of the test: Spinogenesis assay using cultured rat cortical neurons. The test is classed as cell-based. The note with it: compound 1 μM.
The target in test [4] is D1 (h) (antagonist radioligand). Also noted: method as in ref Mefloquine and psychotomimetics share neurotransmitter receptor and transporter interactions in vitro. The settings on record: read-out: Ki of LSD; radioligand SCH 23390; Human cloned; ref Mefloquine and psychotomimetics share neurotransmitter receptor and transporter interactions in vitro; cited from earlier work.

Test [5] addresses alpha 1 (non-selective) (antagonist radioligand). The arrangement: method as in ref Receptor interaction profiles of novel N-2-methoxybenzyl (NBOMe) derivatives of 2,5-dimethoxy-substituted phenethylamines (2C drugs). The settings on record: read-out: Ki of LSD; radioligand prazosin; Human cloned; ref Receptor interaction profiles of novel N-2-methoxybenzyl (NBOMe) derivatives of 2,5-dimethoxy-substituted phenethylamines (2C drugs); cited from earlier work.

Test [6] addresses 5-HT7 (h) (agonist radioligand). Also noted: method as in Molecular biology of 5-HT receptors. The note with it: read-out: Ki of LSD; radioligand 5-HT; Rat cloned; ref Molecular biology of 5-HT receptors; cited from earlier work.
Test [7] concerns the target beta 1 (h) (agonist radioligand). The note with it: read-out: Ki of LSD; radioligand 125I-pindolol; Rat cloned; ref Lysergamides of isomeric 2,4-dimethylazetidines map the binding orientation of the diethylamide moiety in the potent hallucinogenic agent N,N-diethyllysergamide (LSD); cited from earlier work.
Test [8] deals with D2S (h) (antagonist radioligand). The arrangement: method as in ref Mefloquine and psychotomimetics share neurotransmitter receptor and transporter interactions in vitro. The settings on record: read-out: Ki of LSD; radioligand [3H]YM-09151-2; Human cloned; ref Mefloquine and psychotomimetics share neurotransmitter receptor and transporter interactions in vitro; cited from earlier work.

Test [9] concerns the target 5-HT1B (h) (antagonist radioligand). Also noted: method as in ref Pharmacological Differentiation and Characterization of 5-HT1A, 5-HT1B, and 5-HT1C Binding Sites in Rat Frontal Cortex. The note with it: read-out: Ki of LSD; radioligand 5-HT; Rat cortex; ref Pharmacological Differentiation and Characterization of 5-HT1A, 5-HT1B, and 5-HT1C Binding Sites in Rat Frontal Cortex; cited from earlier work.

In test [10] the target is 5-HT2B (h) (agonist radioligand). The settings on record: read-out: Ki of LSD; radioligand 5-HT; Human cloned; ref Pharmacological characterisation of the agonist radioligand binding site of 5-HT(2A), 5-HT(2B) and 5-HT(2C) receptors; cited from earlier work.
In test [11] the target is alpha 2 (non-selective) (antagonist radioligand). Also noted: method as in ref Receptor interaction profiles of novel N-2-methoxybenzyl (NBOMe) derivatives of 2,5-dimethoxy-substituted phenethylamines (2C drugs). The settings on record: read-out: Ki of LSD; radioligand Rauwolscine; Human cloned; ref Receptor interaction profiles of novel N-2-methoxybenzyl (NBOMe) derivatives of 2,5-dimethoxy-substituted phenethylamines (2C drugs); cited from earlier work.

Test [12] concerns the target 5-HT5a (h) (agonist radioligand). The note with it: read-out: Ki of LSD, Rat cloned, ref Lysergamides of isomeric 2,4-dimethylazetidines map the binding orientation of the diethylamide moiety in the potent hallucinogenic agent N,N-diethyllysergamide (LSD); cited from earlier work.

Chain of 5-HT2A receptor membrane preparations obtained from PSYLI2 cells (P28223 1-263 limits assumed): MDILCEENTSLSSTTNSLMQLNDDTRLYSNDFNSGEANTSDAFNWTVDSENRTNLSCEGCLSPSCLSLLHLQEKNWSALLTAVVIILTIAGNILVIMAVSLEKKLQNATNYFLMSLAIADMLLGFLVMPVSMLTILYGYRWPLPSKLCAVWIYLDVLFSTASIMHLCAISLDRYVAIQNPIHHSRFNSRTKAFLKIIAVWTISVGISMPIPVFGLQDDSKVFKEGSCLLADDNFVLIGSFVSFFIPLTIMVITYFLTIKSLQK
Chain of 5-HT2A receptor membrane preparations obtained from PSYLI2 cells (P28223 316-471 limits assumed): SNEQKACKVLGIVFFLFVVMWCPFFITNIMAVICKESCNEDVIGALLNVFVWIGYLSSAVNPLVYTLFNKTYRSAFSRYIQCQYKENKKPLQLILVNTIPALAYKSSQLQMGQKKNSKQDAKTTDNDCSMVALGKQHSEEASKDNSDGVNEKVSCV

In the case of `CCN(CC)CCc1c[nH]c2cc(F)ccc12` [6-F-DET, 6-fluoro-N,N-diethyltryptamine, reference compound], the “Dissociation rate from the 5-HT2A receptor, fold faster than LSD” value in test [1] is on record as approximately 100 fold.
In the case of `C[C@]12C[C@H](O)[C@H]3[C@@H](CCC4=CC(=O)CC[C@@]43C)[C@@H]1CC[C@@H]2C(=O)CO` [CORT, corticosterone, reference compound], the “Dendritic spine density, layer 2/3 mPFC (Table S1, matches Fig. 4N)” value in test [2] is 8.570 ± 0.4350. Further, the “Sucrose preference post-CORT (Figure 6D)” value in the test with C57BL/6J mice came to 0.5563 ± 0.08424.
Take `CCN(CC)C(=O)[C@@H]1C=C2c3cccc4[nH]cc(c34)C[C@H]2N(C)C1` [LSD, lysergic acid diethylamide]: the “Effect of ketanserin (10 μM) pretreatment on compound-induced dendritic spine density” value in [3] is “blocks”. In addition, the Ki (as a rule, the equilibrium dissociation constant of an inhibitor or competing ligand from its target) in test [4] was 273 nM; in test [5], 670 nM; in test [6], 200 nM; in test [7], 140 nM; in test [8], 38 nM; in test [9], 170 nM. In addition, the Ki was 0.977 nM in test [10], 12 nM in test [11] and 9 nM in [12].
